In US20110021579A1, “PERITONEUM PROTECTING AGENT” (TOKAI UNIVERSITY EDUCATIONAL SYSTEM, priority 2005, published 2011):

Experiments:
VEGF = VEGF mRNA expression in mesenterium by semiquantitative RT-PCR; format: in vivo, Sprague-Dawley rats; conditions: peritoneal tissue, uremic rats with PD plus pyridoxamine, FIG. 7B
Text: (§1) Six-week-old male Sprague-Dawley rats weighing 200±3 g (CLER Japan, Inc., Tokyo) were randomly assigned to: sham-operated control rats (Group 1: n=6); uremic rats without peritoneal dialysis (Group 2: n=12); and uremic rats undergoing peritoneal dialysis (n=24). The uremic rats undergoing peritoneal dialysis were further divided into two groups: a group dialyzed with 4.25% Dianeal (registered trademark) (3.86% glucose, 2.5 mEq/CAPD fluid, Baxter Healthcare Corp., Round Lake; IL, USA) (Group 3: n=12); and a group peritoneally dialyzed with 4.25% Dianeal (registered trademark) containing pyridoxamine (Pridorine, Biostratum Inc., NC, USA) at 5 mg/l (Group 4: n=12). […]
(§2) Expression of VEGF or FGF2 (mesenterium) mRNA was analyzed by using semiquantitative reverse transcriptase-polymerase chain reaction (RT-PCR). […]
(§3) β-actin was used as an internal standard of RNA to enable comparison of RNA levels among different samples. […] The PCR products that were resolved by electrophoresis on a 2% agarose gel and stained using ethidium bromide were quantified by measuring the signal intensity with a quantitation program (NIH image software). The mRNA was determined in triplicate and the results were averaged for each experiment. […] The results were averaged and expressed as means±SD. […]

[1] = test system: peritoneal membrane of uremic rats; experiment: Functional analysis of peritoneal membrane by peritoneal equilibration test (PET); format: in vivo, Sprague-Dawley rats
Text: (§4) Six-week-old male Sprague-Dawley rats weighing 200±3 g (CLER Japan, Inc., Tokyo) were randomly assigned to: sham-operated control rats (Group 1: n=6); uremic rats without peritoneal dialysis (Group 2: n=12); and uremic rats undergoing peritoneal dialysis (n=24). The uremic rats undergoing peritoneal dialysis were further divided into two groups: a group dialyzed with 4.25% Dianeal (registered trademark) (3.86% glucose, 2.5 mEq/CAPD fluid, Baxter Healthcare Corp., Round Lake; IL, USA) (Group 3: n=12); and a group peritoneally dialyzed with 4.25% Dianeal (registered trademark) containing pyridoxamine (Pridorine, Biostratum Inc., NC, USA) at 5 mg/l (Group 4: n=12).
Uremic models were generated by 5/6 nephrectomy according to previous reports [Lameire N, et al. Kidney Int 54: 2194-2206, 1998; and Kleinknecht C, et al., Kidney Int 47: S51-S54, 1995]. The animals were provided free access to standard experimental rat chow (CE2: CLER Japan, Inc., Tokyo) containing 1.06% calcium, 0.9% phosphate, and 21% proteins, and tap water until the evening prior to slaughter. On the 13th week, Rat-o-Ports with a 13.5 cm catheter (Access Technologies, Norfolk Medical, Skokie, Ill., USA) were implanted into all the rats under anesthetization of isoflurane. The Rat-o-ports were implanted subcutaneously in the neck, after one week of which the peritoneal dialysis with 30 ml of dialysate was initiated twice a day. The PD was continued for 6 weeks [Zweers MM, et al., Nephrol Dial Transplant 16: 651-654, 2001]. Before the initiation of the peritoneal dialysis, four, five, and two rats had died respectively in Group 2, Group 3, and Group 4. […]
(§5) After 6 weeks of PD, 4.25% Dianeal (registered trademark) was injected from the access port and a peritoneal equilibration test (60 minutes) was performed. […] Mesenterium was excised and assessed by light microscopy or immunohistochemistry.
(§6) The concentrations of glucose, creatinine, urea, total cholesterol, and triglyceride in plasma and peritoneal dialysate were measured with an autoanalyzer (Hitachi 736-60, Hitachi Co. Ltd., Tokyo).
The dialysate/plasma (D/P) ratio of Cr (A) and urea (B), and the absorption of glucose from the dialysate (D/D0) (C) were assessed, during a 60-minute exchange with 20 ml of 3.85% glucose dialysate, in control rats (Group 1), uremic rats without PD (Group 2), uremic rats undergoing peritoneal dialysis in the absence of pyridoxamine (Group 3), and uremic rats undergoing peritoneal dialysis in the presence of 5 mg/L pyridoxamine (Group 4). a: p<0.01 vs. Group 1. b: p<0.01 vs. Group 2. c: p<0.01 vs. Group 3. d: p<0.01 vs. Group 4. e: p<0.05 vs. Group 3. f: p<0.05 vs. Group 4.

[2] = Biochemical data and body weight of subtotally nephrectomized uremic rats undergoing peritoneal dialysis; format: in vivo; conditions: 6-week PD with pyridoxamine 5 mg/l (Group 4), 21 weeks, mean ± SD
Text: as §4
(§7) Uremic models were generated by 5/6 nephrectomy according to previous reports [Lameire N, et al. Kidney Int 54: 2194-2206, 1998; and Kleinknecht C, et al., Kidney Int 47: S51-S54, 1995]. […]
as §5, §6

[3] = test system: vessels in the peritoneal tissue; experiment: Number of vessels in mesenterium (von Willebrand factor staining, image analysis); format: in vivo, Sprague-Dawley rats; conditions: uremic rats with PD plus pyridoxamine; uremia alone 1.87-fold, PD 5.83-fold
Text: as §4, §7
(§8) After 6 weeks of PD, 4.25% Dianeal (registered trademark) was injected from the access port and a peritoneal equilibration test (60 minutes) was performed. […] Mesenterium was excised and assessed by light microscopy or immunohistochemistry. […]
The number of vessels was assessed in the sections stained for von Willebrand factor by image analysis using a WinROOF software (Mitani. Corporation, Tokyo). […]

[4] = test system: pentosidine (AGE and carbonyl stress marker); experiment: Pentosidine content in peritoneal membrane by HPLC; format: in vivo, Sprague-Dawley rats
Text: as §4, §7, §5
The pentosidine content in the rat peritoneal membrane was assessed as follows, using HPLC in accordance with an already-reported method [Miyata T, et al., J. Am. […] The effluent was monitored using a fluorescence detector (RF-10A: Shimadzu, Tokyo) at an excitation-emission wavelength of 335/385 nm. […]

[5] = test system: VEGF, FGF-2, vWF, AGEs, and TGF-β1; experiment: Immunohistochemical analysis of mesenterium tissue sections; format: in vivo, Sprague-Dawley rats; conditions: rats treated with pyridoxamine; prominent in uremic rats with PD, FIG. 8
Text: as §4
Uremic models were generated by 5/6 nephrectomy according to previous reports [Lameire N, et al. Kidney Int 54: 2194-2206, 1998; and Kleinknecht C, et al., Kidney Int 47: S51-S54, 1995]. The animals were provided free access to standard experimental rat chow (CE2: CLER Japan, Inc., Tokyo) containing 1.06% calcium, 0.9% phosphate, and 21% proteins, and tap water until the evening prior to slaughter. […]
as §8

FGF-2 = FGF-2 mRNA expression in mesenterium by semiquantitative RT-PCR; format: in vivo, Sprague-Dawley rats; conditions: peritoneal tissue, uremic rats with PD plus pyridoxamine, FIG. 7C
Text: as §1, §2, §3

With `Cc1ncc(CO)c(CN)c1O` [pyridoxamine] the “VEGF mRNA expression (ratio over β-actin)” value (VEGF) was “equivalent levels to those of uremic rats without PD”, the “Absorption rate of glucose from the dialysate (D/D0)” value ([1]; 6-week treatment, pyridoxamine 5 mg/L in dialysate, 60-minute PET, vs Group 3) was “significantly lowered” and the “Transport rate of small solutes (creatinine, urea) from the plasma (D/P ratio)” value ([1]; 6-week treatment, pyridoxamine 5 mg/L in dialysate, 60-minute PET, vs uremic PD rats without pyridoxamine (Group 3)) was “significantly lowered”. For the same compound, the “Slope of the regression line between increased permeability for small solutes (creatinine and glucose) and degree of renal failure” value ([1]; Group 4, FIGS. 3A and B) was “dramatically lowered”, the “Influence of uremia on membrane permeability” value ([1]; pyridoxamine treatment, uremic rats with PD) was “completely dissipated” and the Body weight [2] was 419 ± 29 g. The “Increase in vessel number (ratio to number of vessels of healthy control animals)” value [3] was 2.68 fold, the “Slope of the regression line between pentosidine content and renal failure” value ([4]; Group 4, FIG. 5B, in words) was “lowered the slope of the regression line” and the Tissue pentosidine content ([4]; Group 4 vs Group 3, FIG. 5A) was “significantly lowered”. For the same compound, the “VEGF, FGF-2, vWF, AGEs, and TGF-β1 stainings in capillaries of the mesenterium” value [5] was “only faint stainings” and the “FGF-2 mRNA expression (ratio over β-actin)” value (FGF-2) was “equivalent levels to those of uremic rats without PD”.
